A word on the inhibition: it is the drop in the measured response relative to a control, in per cent.

Experimental findings from ChEMBL document CHEMBL4739709, “Novel cyclin-dependent kinase 8 and/or 19 inhibitor” (2020) are described below.

Calls of active or inactive are those of the source. The rule behind the calls is not given here. Where only a bound is given, the exact number is not on record here.

In assay [1] the target is CDK8/Cyclin C (Homo sapiens) (UniProt P49336+P24863). Kind of assay: Inhibition of human CDK8/cyclin C at 1 uM incubated for 30 mins by ELISA. In kind it is protein-complex assay.
In another assay the test system is MV4-11. The assay can be described thus: Inhibition of cell proliferation of human MV4-11 cells at 1 uM incubated for 3 days by CellTiter 96 aqueous one solution cell proliferation assay. Format: functional. The settings on record: MV4-11, 72 h, time 3 day.
Assay [2] concerns the target Cyclin-dependent kinase 19 (Homo sapiens) (UniProt Q9BWU1). Kind of assay: Inhibition of CDK19 (unknown origin) at 1 uM incubated for 30 mins by ELISA. In general terms: An ELISA detects its analyte on a solid surface through an enzyme-linked reagent.
For assay [3], the target named is RAC-alpha serine/threonine-protein kinase (Homo sapiens) (UniProt P31749). The assay can be described thus: Inhibition of human AKT1 at 1 uM using substrate peptide by off-chip mobility shift assay.
For assay [4], the target named is AMP-activated protein kinase (AMPK) alpha-1/beta-1/gamma-1 (Homo sapiens) (UniProt P54619+Q9Y478+Q13131). The assay can be described thus: Inhibition of human AMPKalpha1/beta1/gamma1 at 1 uM using substrate peptide by off-chip mobility shift assay.
Assay [5] has as its target Aurora kinase A (Homo sapiens) (UniProt O14965). Kind of assay: Inhibition of human Aurora A at 1 uM using substrate peptide by off-chip mobility shift assay.
Assay [6] concerns the target Calcium/calmodulin-dependent protein kinase type IV (Homo sapiens) (UniProt Q16566). Kind of assay: Inhibition of human CaMK4 at 1 uM using substrate peptide by off-chip mobility shift assay.
Assay [7] has as its target Cyclin-dependent kinase 1/cyclin B1 (Homo sapiens) (UniProt P06493+P14635). Kind of assay: Inhibition of human CDC2/CycB1 at 1 uM using substrate peptide by off-chip mobility shift assay. In kind it is protein-complex assay.
The target of assay [8] is CDK2/Cyclin C (Homo sapiens) (UniProt P24941+P24863). Kind of assay: Inhibition of human CDK2/CycC2 at 1 uM using substrate peptide by off-chip mobility shift assay.
In assay [9] the target is Cyclin-dependent kinase 2/cyclin E1 (Homo sapiens) (UniProt P24864+P24941). Kind of assay: Inhibition of human CDK2/CycE1 at 1 uM using substrate peptide by off-chip mobility shift assay. In kind it is protein-complex assay.
Assay [10] addresses CDK3/Cyclin E (Homo sapiens) (UniProt P24864+Q00526). The assay can be described thus: Inhibition of human CDK3/CycE1 at 1 uM using substrate peptide by off-chip mobility shift assay. In kind it is protein-complex assay.
Assay [11] deals with CDK4/Cyclin D3 (Homo sapiens) (UniProt P11802+P30281). Kind of assay: Inhibition of human CDK4/CycD3 at 1 uM using substrate peptide by off-chip mobility shift assay. In kind it is protein-complex assay.
Assay [12] has as its target Cyclin-dependent kinase 5/CDK5 activator 1 (Homo sapiens) (UniProt Q00535+Q15078). Kind of assay: Inhibition of human CDK5/p25 at 1 uM using substrate peptide by off-chip mobility shift assay. Format: protein-complex assay.
In assay [13] the target is CDK6/cyclin D3 (Homo sapiens) (UniProt P30281+Q00534). Kind of assay: Inhibition of human CDK6/cyclinD3 at 1 uM using substrate peptide by off-chip mobility shift assay. In kind it is protein-complex assay.
Assay [14] addresses CDK7/Cyclin H/MNAT1 (Homo sapiens) (UniProt P51946+P50613+P51948). The assay can be described thus: Inhibition of human CDK7/CycH/MAT1 at 1 uM using substrate peptide by off-chip mobility shift assay. In kind it is protein-complex assay.
The target of assay [15] is CDK9/cyclin T1 (Homo sapiens) (UniProt O60563+P50750). Kind of assay: Inhibition of human CDK9/CycT1 at 1 uM using substrate peptide by off-chip mobility shift assay. Format: protein-complex assay.
The target in assay [16] is Serine/threonine-protein kinase Chk1 (Homo sapiens) (UniProt O14757). Kind of assay: Inhibition of human CHK1 at 1 uM using substrate peptide by off-chip mobility shift assay.
The species entered for assay [17] is Homo sapiens. Kind of assay: Inhibition of human CK1delta at 1 uM using substrate peptide by off-chip mobility shift assay.
Assay [18] has as its target Death-associated protein kinase 1 (Homo sapiens) (UniProt P53355). Kind of assay: Inhibition of human DAPK1 at 1 uM using substrate peptide by off-chip mobility shift assay.
Assay [19] deals with Dual specificity tyrosine-phosphorylation-regulated kinase 1B (Homo sapiens) (UniProt Q9Y463). The assay can be described thus: Inhibition of human DYRK1B at 1 uM using substrate peptide by off-chip mobility shift assay.
The target in assay [20] is Mitogen-activated protein kinase 1 (Homo sapiens) (UniProt P28482). Kind of assay: Inhibition of human ERK2 at 1 uM using substrate peptide by off-chip mobility shift assay.
For assay [21], the target named is Glycogen synthase kinase-3 beta (Homo sapiens) (UniProt P49841). The assay can be described thus: Inhibition of human GSK3beta at 1 uM using substrate peptide by off-chip mobility shift assay.
The target in assay [22] is Mitogen-activated protein kinase kinase kinase kinase 4 (Homo sapiens) (UniProt O95819). The assay can be described thus: Inhibition of human HGK at 1 uM using substrate peptide by off-chip mobility shift assay.
The target in assay [23] is Inhibitor of nuclear factor kappa-B kinase subunit beta (Homo sapiens) (UniProt O14920). Kind of assay: Inhibition of human IKKbeta at 1 uM using substrate peptide by off-chip mobility shift assay.
In assay [24] the target is Interleukin-1 receptor-associated kinase 4 (Homo sapiens) (UniProt Q9NWZ3). The assay can be described thus: Inhibition of human IRAK4 at 1 uM using substrate peptide by off-chip mobility shift assay.
Assay [25] shares this target. Kind of assay: Inhibition of human JNK2 at 1 uM using substrate peptide by off-chip mobility shift assay.
For assay [26], the target named is Mitogen-activated protein kinase kinase kinase kinase 2 (Homo sapiens) (UniProt Q12851). The assay can be described thus: Inhibition of human MAP4K2 at 1 uM using substrate peptide by off-chip mobility shift assay.
For assay [27], the target named is Serine/threonine-protein kinase 4 (Homo sapiens) (UniProt Q13043). The assay can be described thus: Inhibition of human MST1 at 1 uM using substrate peptide by off-chip mobility shift assay.
For assay [28], the target named is Serine/threonine-protein kinase Nek2 (Homo sapiens) (UniProt P51955). Kind of assay: Inhibition of human NEK2 at 1 uM using substrate peptide by off-chip mobility shift assay.
Assay [29] concerns the target Mitogen-activated protein kinase 14 (Homo sapiens) (UniProt Q16539). Kind of assay: Inhibition of human p38alpha at 1 uM using substrate peptide by off-chip mobility shift assay.
For assay [30], the species on record is Homo sapiens. The assay can be described thus: Inhibition of human p70S6K at 1 uM using substrate peptide by off-chip mobility shift assay.
The target in assay [31] is Serine/threonine-protein kinase PAK 2 (Homo sapiens) (UniProt Q13177). Kind of assay: Inhibition of human PAK2 at 1 uM using substrate peptide by off-chip mobility shift assay.
Assay [32] has as its target Lymphokine-activated killer T-cell-originated protein kinase (Homo sapiens) (UniProt Q96KB5). The assay can be described thus: Inhibition of human PBK at 1 uM using substrate peptide by off-chip mobility shift assay.
Assay [33] has as its target 3-phosphoinositide-dependent protein kinase 1 (Homo sapiens) (UniProt O15530). The assay can be described thus: Inhibition of human PDK1 at 1 uM using substrate peptide by off-chip mobility shift assay.
Assay [34] addresses Serine/threonine-protein kinase pim-1 (Homo sapiens) (UniProt P11309). Kind of assay: Inhibition of human PIM1 at 1 uM using substrate peptide by off-chip mobility shift assay.
For assay [35], the target named is cAMP-dependent protein kinase catalytic subunit alpha (Homo sapiens) (UniProt P17612). The assay can be described thus: Inhibition of human PKACalpha at 1 uM using substrate peptide by off-chip mobility shift assay.
The target in assay [36] is Serine/threonine-protein kinase D2 (Homo sapiens) (UniProt Q9BZL6). Kind of assay: Inhibition of human PKD2 at 1 uM using substrate peptide by off-chip mobility shift assay.
Assay [37] concerns the target Rho-associated protein kinase 1 (Homo sapiens) (UniProt Q13464). Kind of assay: Inhibition of human ROCK1 at 1 uM using substrate peptide by off-chip mobility shift assay.
Assay [38] deals with Serine/threonine-protein kinase Sgk1 (Homo sapiens) (UniProt O00141). Kind of assay: Inhibition of human SGK at 1 uM using substrate peptide by off-chip mobility shift assay.
Assay [39] deals with Testis-specific serine/threonine-protein kinase 1 (Homo sapiens) (UniProt Q9BXA7). Kind of assay: Inhibition of human TSSK1 at 1 uM using substrate peptide by off-chip mobility shift assay.

Chain of Interleukin-1 receptor-associated kinase 4 (Homo sapiens) (Q9NWZ3 whole entry): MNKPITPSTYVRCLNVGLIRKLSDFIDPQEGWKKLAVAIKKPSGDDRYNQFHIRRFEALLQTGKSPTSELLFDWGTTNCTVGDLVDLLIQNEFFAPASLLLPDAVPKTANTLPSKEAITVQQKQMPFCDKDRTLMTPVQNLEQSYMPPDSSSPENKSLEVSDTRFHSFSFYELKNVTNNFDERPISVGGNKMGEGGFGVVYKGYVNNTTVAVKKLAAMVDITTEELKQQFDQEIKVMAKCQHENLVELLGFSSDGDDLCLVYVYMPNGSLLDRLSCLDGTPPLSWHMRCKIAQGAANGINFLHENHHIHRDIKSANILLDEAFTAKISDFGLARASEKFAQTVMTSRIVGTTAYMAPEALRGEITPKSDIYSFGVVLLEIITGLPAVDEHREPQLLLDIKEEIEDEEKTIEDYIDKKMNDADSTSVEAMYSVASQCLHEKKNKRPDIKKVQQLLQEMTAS
Chain of Cyclin-dependent kinase 19 (Homo sapiens) (Q9BWU1 whole entry): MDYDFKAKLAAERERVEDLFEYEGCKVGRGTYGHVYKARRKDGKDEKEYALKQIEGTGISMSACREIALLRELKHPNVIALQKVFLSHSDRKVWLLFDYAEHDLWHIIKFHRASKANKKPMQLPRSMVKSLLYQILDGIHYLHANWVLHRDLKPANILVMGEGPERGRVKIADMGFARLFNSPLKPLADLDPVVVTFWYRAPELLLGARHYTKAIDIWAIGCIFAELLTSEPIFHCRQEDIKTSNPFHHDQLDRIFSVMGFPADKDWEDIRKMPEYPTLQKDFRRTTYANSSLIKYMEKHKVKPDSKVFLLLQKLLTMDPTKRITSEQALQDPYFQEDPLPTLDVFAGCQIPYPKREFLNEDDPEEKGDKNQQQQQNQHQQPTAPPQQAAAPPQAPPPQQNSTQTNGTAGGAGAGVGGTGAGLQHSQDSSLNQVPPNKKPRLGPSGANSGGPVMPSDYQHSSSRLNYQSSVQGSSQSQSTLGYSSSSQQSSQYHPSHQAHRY
Chain of Serine/threonine-protein kinase D2 (Homo sapiens) (Q9BZL6 whole entry): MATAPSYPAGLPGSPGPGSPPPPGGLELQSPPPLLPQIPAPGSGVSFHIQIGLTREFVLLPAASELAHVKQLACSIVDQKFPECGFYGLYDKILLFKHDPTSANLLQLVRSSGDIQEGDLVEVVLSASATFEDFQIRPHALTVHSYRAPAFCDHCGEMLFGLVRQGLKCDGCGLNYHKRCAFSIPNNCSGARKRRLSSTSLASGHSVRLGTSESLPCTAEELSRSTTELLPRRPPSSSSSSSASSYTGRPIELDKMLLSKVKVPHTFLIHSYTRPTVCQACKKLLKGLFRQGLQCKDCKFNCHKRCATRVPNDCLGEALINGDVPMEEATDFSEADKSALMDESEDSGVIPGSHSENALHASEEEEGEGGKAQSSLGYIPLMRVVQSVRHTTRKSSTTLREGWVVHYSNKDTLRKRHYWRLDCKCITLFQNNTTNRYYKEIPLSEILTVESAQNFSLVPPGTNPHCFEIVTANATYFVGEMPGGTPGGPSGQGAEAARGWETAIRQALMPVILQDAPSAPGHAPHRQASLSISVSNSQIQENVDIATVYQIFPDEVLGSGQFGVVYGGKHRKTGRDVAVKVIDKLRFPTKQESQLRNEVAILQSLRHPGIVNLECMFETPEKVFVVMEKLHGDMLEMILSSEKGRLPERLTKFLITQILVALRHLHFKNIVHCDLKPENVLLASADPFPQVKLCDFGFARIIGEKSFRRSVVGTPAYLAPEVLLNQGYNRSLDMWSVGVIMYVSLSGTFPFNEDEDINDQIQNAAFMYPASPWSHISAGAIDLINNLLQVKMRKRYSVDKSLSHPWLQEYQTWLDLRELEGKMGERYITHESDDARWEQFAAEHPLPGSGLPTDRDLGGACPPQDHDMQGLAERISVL
Chain of AMP-activated protein kinase (AMPK) alpha-1/beta-1/gamma-1 (Homo sapiens) (P54619 whole entry): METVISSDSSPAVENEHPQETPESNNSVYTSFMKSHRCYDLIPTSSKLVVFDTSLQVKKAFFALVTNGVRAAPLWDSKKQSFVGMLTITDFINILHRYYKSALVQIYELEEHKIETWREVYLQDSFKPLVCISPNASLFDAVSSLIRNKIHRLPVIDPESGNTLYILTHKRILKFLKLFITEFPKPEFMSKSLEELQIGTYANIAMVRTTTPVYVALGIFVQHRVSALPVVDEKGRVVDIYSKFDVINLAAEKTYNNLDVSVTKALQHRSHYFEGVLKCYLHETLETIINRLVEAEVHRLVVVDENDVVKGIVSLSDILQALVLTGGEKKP
Chain of AMP-activated protein kinase (AMPK) alpha-1/beta-1/gamma-1 (Homo sapiens) (Q13131 whole entry partner): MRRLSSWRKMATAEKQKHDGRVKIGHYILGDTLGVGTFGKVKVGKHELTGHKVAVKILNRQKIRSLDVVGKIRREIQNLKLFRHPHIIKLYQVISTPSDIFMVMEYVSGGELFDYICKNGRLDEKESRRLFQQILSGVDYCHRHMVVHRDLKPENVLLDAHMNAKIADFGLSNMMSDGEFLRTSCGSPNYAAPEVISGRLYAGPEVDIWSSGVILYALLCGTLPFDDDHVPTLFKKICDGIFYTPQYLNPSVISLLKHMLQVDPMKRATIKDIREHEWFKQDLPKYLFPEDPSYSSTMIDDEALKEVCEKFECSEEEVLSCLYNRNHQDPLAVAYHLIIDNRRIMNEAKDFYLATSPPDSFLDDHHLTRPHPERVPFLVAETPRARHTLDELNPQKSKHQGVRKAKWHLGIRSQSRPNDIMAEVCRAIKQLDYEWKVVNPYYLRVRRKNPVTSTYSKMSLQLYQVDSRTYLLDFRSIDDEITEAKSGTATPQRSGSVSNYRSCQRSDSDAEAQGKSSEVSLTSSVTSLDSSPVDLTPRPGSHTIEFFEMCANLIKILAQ
Chain of AMP-activated protein kinase (AMPK) alpha-1/beta-1/gamma-1 (Homo sapiens) (Q9Y478 2-270 partner limits assumed): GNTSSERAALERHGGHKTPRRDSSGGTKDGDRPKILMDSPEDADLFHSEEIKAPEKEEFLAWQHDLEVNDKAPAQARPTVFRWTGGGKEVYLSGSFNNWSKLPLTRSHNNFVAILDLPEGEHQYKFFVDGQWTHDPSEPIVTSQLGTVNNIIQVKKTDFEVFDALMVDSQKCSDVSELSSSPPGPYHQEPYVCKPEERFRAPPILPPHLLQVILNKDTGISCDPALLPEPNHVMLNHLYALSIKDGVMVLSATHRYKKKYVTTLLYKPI
Chain of Glycogen synthase kinase-3 beta (Homo sapiens) (P49841 whole entry, looked up): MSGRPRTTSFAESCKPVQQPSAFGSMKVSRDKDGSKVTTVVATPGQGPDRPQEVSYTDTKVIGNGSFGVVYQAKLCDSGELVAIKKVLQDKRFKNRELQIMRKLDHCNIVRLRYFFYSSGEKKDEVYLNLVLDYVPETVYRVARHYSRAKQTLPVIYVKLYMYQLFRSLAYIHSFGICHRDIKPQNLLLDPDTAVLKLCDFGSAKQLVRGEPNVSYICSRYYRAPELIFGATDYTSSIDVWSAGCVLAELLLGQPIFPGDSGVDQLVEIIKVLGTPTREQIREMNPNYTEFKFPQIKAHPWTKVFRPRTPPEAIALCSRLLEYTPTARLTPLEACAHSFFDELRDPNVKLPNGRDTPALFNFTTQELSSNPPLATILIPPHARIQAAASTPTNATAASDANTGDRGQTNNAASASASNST
Chain of Dual specificity tyrosine-phosphorylation-regulated kinase 1B (Homo sapiens) (Q9Y463 whole entry, looked up): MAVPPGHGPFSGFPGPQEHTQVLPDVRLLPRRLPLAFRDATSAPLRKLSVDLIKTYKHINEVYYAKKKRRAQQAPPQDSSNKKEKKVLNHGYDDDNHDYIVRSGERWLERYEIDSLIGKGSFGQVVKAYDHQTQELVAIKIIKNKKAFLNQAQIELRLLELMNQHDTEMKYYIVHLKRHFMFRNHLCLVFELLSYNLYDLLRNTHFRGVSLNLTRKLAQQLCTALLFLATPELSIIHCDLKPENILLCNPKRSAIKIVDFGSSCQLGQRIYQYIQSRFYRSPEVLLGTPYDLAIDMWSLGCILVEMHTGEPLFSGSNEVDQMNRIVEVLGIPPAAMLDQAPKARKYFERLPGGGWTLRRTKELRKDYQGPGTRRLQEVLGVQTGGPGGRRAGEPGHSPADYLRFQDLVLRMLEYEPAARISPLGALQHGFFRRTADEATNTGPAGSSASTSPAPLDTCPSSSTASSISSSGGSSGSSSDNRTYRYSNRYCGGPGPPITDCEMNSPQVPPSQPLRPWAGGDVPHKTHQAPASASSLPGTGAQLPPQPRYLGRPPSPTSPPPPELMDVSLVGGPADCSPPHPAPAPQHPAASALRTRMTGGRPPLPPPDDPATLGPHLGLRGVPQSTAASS
Chain of Cyclin-dependent kinase 1/cyclin B1 (Homo sapiens) (P06493 whole entry, looked up): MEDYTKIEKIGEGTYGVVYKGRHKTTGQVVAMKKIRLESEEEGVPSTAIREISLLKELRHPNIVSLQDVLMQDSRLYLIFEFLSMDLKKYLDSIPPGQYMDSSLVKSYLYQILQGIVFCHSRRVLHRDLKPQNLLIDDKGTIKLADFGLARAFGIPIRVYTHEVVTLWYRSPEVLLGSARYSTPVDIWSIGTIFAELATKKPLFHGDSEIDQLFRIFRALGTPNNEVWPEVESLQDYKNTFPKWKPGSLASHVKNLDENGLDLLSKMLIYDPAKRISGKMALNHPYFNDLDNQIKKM
Chain of Cyclin-dependent kinase 1/cyclin B1 (Homo sapiens) (P14635 whole entry, looked up): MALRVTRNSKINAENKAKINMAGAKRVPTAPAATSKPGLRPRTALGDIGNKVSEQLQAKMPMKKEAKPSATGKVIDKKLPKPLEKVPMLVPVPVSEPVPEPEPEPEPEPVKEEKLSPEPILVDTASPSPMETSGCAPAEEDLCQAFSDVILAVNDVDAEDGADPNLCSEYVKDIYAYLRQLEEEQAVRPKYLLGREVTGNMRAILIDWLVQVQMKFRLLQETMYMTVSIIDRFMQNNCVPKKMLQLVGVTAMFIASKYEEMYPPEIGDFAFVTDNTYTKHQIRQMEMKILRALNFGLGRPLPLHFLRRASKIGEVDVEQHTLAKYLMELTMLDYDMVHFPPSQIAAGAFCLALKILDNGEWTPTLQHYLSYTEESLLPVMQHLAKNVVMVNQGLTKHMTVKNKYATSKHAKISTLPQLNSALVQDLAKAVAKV

Turning to `NC(=O)c1ccc([N+](=O)[O-])c(Nc2ccc(N3CC(OCCO)C3)cc2)c1`, the inhibition in assay [1] was more than 90%. The same compound gave an inhibition at 1 µM with MV4-11 not below 50%.

Turning to `CC(=O)c1ccc(C(N)=O)cc1Oc1ccc(N2CC(OCCO)C2)cc1`, the inhibition in assay [1] is more than 90%. The compound also gave an inhibition at 1 µM in the assay with MV4-11 not below 50%.

Turning to `COc1cc(Nc2ccc(N3CCN(CC(C)(C)C(=O)O)CC3)cc2)c([N+](=O)[O-])cc1F`, the inhibition in [1] was more than 90%.

As to `C[C@@H](O)c1ccc(C(N)=O)cc1Oc1ccc(OCCOC2CCOCC2)cc1`, the inhibition in assay [1] and in assay [2] was more than 90% throughout.

For the compound `CC(=O)c1ccc(C(N)=O)cc1Nc1ccc(OCCOCCCC(=O)O)cc1`, the inhibition in assay [1] is more than 90%.

As for `CC(=O)c1ccc(C(N)=O)cc1Oc1ccc(OCCOC2CCOCC2)cc1`, the inhibition in assay [1] and in [2] was more than 90% throughout. The inhibition entry in assay [3], in [4], in assay [5], in assay [6], in assay [7] and in assay [8] was “inactive” throughout. Further, the inhibition result in assay [9], in assay [10], in assay [11], in assay [12], in assay [13] and in assay [14] was “inactive” throughout. Further, the inhibition result (in assay [15]; in assay [16]; in the assay filed under Homo sapiens [17]; in [18]; in assay [19]; in assay [20]) was “inactive” throughout. In addition, the inhibition result in [21], in [22], in assay [23], in assay [24], in assay [25] and in assay [26] was “inactive” throughout. Also, the inhibition result (in [27]; in [28]; in assay [29]; in the assay filed under Homo sapiens [30]; in assay [31]; in [32]) was “inactive” each time. In addition, the inhibition result in assay [33], in [34], in assay [35], in assay [36], in [37] and in assay [38] was “inactive” in each case. Besides, in [39], the inhibition entry was “inactive”. For the same compound, the inhibition at 1 µM in the assay on MV4-11 was not below 50%.

As to `CC(=O)c1ccc(C(N)=O)c(Oc2ccc(N3CC(OCCO)C3)cc2)c1`, the inhibition in [1] is more than 90%.

In turn, `CC(C)OCCOCCOc1ccc(Oc2cc(C(N)=O)ccc2C(F)(F)F)cc1` yielded an inhibition in assay [1] of more than 90%.

`C=C(F)c1ccc(C(N)=O)cc1Oc1ccc(OCCOC2CCOCC2)cc1` registered an inhibition in assay [1] of more than 90%. The inhibition at 1 µM in the assay on MV4-11 was not below 50%.

Regarding `CNC(=O)c1ccc([N+](=O)[O-])c(Nc2ccc(N3CC(OCCO)C3)cc2)c1`, the inhibition in assay [1] is more than 90%. Further, in the assay on MV4-11, the inhibition at 1 µM is not below 50%.

In turn, `NC(=O)c1ccc([N+](=O)[O-])c(Nc2ccc(OCCOC3CCOCC3)cc2)c1` showed an inhibition in assay [1] of more than 90%. In the assay with MV4-11, this compound yielded an inhibition at 1 µM not below 50%.

In assay [1], `CC(=O)c1ccc(C(N)=O)cc1Oc1ccc(OCCOC2CCOC2)cc1` (configuration not stated) came in with an inhibition of more than 90%. In addition, the inhibition at 1 µM in the assay on MV4-11 is not below 50%.

Consider `CC(=O)c1ccc(C(N)=O)cc1Oc1ccc(OCCOCCOC(C)C)cc1`, for which the inhibition in assay [1] was more than 90%. Moreover, the inhibition at 1 µM with MV4-11 was not below 50%.

For `NC(=O)c1ccc(C(F)(F)F)c(Oc2ccc(OCCOC3CCOCC3)cc2)c1`, in assay [1], the inhibition is more than 90%. In the assay with MV4-11, this compound showed an inhibition at 1 µM not below 50%.
